One assay has as its target CK2 ααββ (Homo sapiens (Human), UniProt P68400). Kind of assay: CK2 assay (cell-free, 33P-ATP, phosphocellulose filter plate). In kind it is biochemical.
In a further assay the target is recombinant human PIM2 (Homo sapiens (Human), UniProt Q9P1W9). Description: PIM-2 assay (33P-ATP filter binding). In kind it is biochemical. Conditions: for PIM2: % inh […]: at […] compound.
Where [1] appears, read: PIM2: IC50 (5 μM ATP), 5 μM ATP.

Data on 56 molecules can be found in US9303033B2, “Pyrazolopyrimidines and related heterocycles as CK2 inhibitors” (SENHWA BIOSCIENCES, INC., priority 2009, dated 2016).

Where two headings read alike, the source gives them in different places.

Sequence of CK2 ααββ (P68400 whole entry): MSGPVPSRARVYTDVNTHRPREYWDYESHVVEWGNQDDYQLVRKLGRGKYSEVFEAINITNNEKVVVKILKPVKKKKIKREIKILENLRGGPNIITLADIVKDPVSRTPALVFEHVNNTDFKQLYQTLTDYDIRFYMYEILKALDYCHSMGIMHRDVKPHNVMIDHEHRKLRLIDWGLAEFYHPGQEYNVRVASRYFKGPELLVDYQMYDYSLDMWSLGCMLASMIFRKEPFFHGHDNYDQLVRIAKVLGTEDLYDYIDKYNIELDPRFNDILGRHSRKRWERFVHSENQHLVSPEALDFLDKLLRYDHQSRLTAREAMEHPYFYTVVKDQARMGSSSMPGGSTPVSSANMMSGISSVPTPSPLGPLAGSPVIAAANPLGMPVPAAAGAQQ
Sequence of CK2 ααββ (P67870 whole entry partner): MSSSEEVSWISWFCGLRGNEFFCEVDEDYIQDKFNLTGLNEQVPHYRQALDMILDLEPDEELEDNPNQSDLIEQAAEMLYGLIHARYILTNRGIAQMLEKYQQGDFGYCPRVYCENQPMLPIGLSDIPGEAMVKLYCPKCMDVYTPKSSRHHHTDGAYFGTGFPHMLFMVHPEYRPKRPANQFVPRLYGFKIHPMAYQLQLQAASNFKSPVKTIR
Sequence of recombinant human PIM2 (Q9P1W9 whole entry): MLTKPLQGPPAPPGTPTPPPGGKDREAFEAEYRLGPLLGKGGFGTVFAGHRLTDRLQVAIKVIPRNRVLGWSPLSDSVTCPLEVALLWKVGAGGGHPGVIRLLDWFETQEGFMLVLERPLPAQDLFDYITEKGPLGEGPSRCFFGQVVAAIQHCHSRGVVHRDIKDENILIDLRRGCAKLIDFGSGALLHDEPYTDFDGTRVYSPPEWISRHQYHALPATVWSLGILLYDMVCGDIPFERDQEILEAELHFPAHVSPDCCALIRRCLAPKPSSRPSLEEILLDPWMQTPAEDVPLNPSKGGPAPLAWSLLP
Protocol for recombinant human PIM2: Test compounds dissolved and diluted in DMSO (2 μl) were added to a reaction mixture comprising 10 μl of 5× Reaction Buffer (40 mM MOPS pH 7.0, 5 mM EDTA), 10 μl of recombinant human PIM2 solution (4 ng PIM-2 dissolved in dilution buffer (20 mM MOPS pH 7.0; EDTA 1 mM; 5% Glycerol; 0.01% Brij 35; 0.1%; 0.1% 2-mercaptoethanol; 1 mg/ml BSA)) and 8 ul of water.

For orientation: IC50 means the point on the concentration scale where inhibition reaches its midpoint. Take `CC(C)C(CNc1cc(Nc2cccc(Cl)c2)nc2c(/C=C3\NC(=O)NC3=O)cnn12)N(C)C` (stereo not drawn) [Example W6]: the IC50 against CK2 ααββ is under 1000 nM.
Regarding `CC(=O)Nc1cccc(Nc2cc(NCC3CC3)n3ncc(/C=C4\NC(=O)NC4=O)c3n2)c1` [Example Y1], the IC50 is under 100 nM against CK2 ααββ and over 2500 nM at recombinant human PIM2 (setting [1]).
On to `CC(=O)NC1CCC(Nc2cc(NC3CC3)n3ncc(/C=C4\NC(=O)NC4=O)c3n2)CC1` (stereo not drawn) [Example D3], for which the IC50 at CK2 ααββ was under 10 nM; on recombinant human PIM2 (read-out: PIM2: IC50 (5 μM ATP), 5 μM ATP) it was 476 nM.
In the case of `O=C1NC(=O)/C(=C/c2cnn3c(NC(=O)C4CCNCC4)cc(Nc4cccc(Cl)c4)nc23)N1` [Example B1, N-(5-(3-chlorophenylamino)-3-((2,5-dioxoimidazolidin-4-ylidene)methyl)pyrazolo[1,5-a]pyrimidin-7-yl)piperidine-4-carboxamide], the values for the 50% inhibitory concentration (IC50) on CK2 ααββ and on recombinant human PIM2 (setting [1]) were under 1000 nM and 2500 nM, respectively.
For `CC(Oc1nc(NC2CC2)n2ncc(C=C3NC(=O)NC3=O)c2n1)c1c(Cl)ccc(F)c1Cl` (stereo not drawn) [Compound L36], the IC50 on CK2 ααββ is under 10 nM; on recombinant human PIM2 (read-out: PIM2: IC50), over 1000 nM.
`COC(=O)N[C@H]1CC[C@H](Nc2cc(NC3CC3)n3ncc(/C=C4\NC(=O)NC4=O)c3n2)CC1` [Example C3]: the IC50 against CK2 ααββ is under 10 nM; at recombinant human PIM2 (setting [1]) it was 679 nM.
Taken in the same sequence, the figures for `O=C1NC(=O)/C(=C/c2cnn3c(NC4CC4)cc(-c4ccnc(F)c4)nc23)S1` [Example I5] were under 1000 nM and 218 nM.
In the same order, the values of `O=C1NC(=O)/C(=C/c2cnn3c(NC4CC4)cc(Nc4cc(Cl)ccc4F)nc23)N1` [Example Q1] are under 10 nM and over 2500 nM.
`O=C1NC(=O)/C(=C/c2cnn3c(NCC4CC4)cc(Nc4ccc(Cl)cn4)nc23)N1` [Example H2] returned an IC50 against CK2 ααββ of under 10 nM.
Consider `CC(C)N1CCC(Nc2cc(Nc3cccc(Cl)c3)nc3c(/C=C4\NC(=O)NC4=O)cnn23)CC1` [Example Q5], for which the half-inhibitory concentration (IC50) is under 100 nM against CK2 ααββ and over 2500 nM on recombinant human PIM2 (setting [1]).
Turning to `O=C1NC(=O)/C(=C/c2cnn3c(Nc4cc[nH]n4)cc(Nc4cccc(Cl)c4)nc23)N1` [Example S6], the IC50 at CK2 ααββ was under 100 nM.
Turning to `O=C1NC(=O)/C(=C/c2cnn3c(NCC4(CO)CCCC4)cc(Nc4cccc(Cl)c4)nc23)N1` [Example R6], the concentration for half-maximal inhibition (IC50) against CK2 ααββ is under 1000 nM; on recombinant human PIM2 (setting [1]), 1120 nM.
Taken in the same sequence, the figures for `CC(C)CN1CCC(Nc2cc(Nc3cccc(Cl)c3)nc3c(/C=C4\NC(=O)NC4=O)cnn23)CC1` [Example R5] were under 100 nM and 2200 nM.
On to `Cc1cc(-c2cc(NC3CC3)n3ncc(/C=C4\NC(=O)NC4=O)c3n2)cc(C)c1O` [Example C5], for which the figures for the IC50 against CK2 ααββ and on recombinant human PIM2 (setting [1]) were under 1000 nM and over 2500 nM, respectively.
In the case of `Cc1cccc(Nc2cc(NCC3CC3)n3ncc(/C=C4\NC(=O)NC4=O)c3n2)c1` [Example A2], the IC50 on CK2 ααββ was under 100 nM.
`NCc1cccc(Nc2cc(NCC3CC3)n3ncc(/C=C4\NC(=O)NC4=O)c3n2)c1` [Example Z1] displayed an IC50 at CK2 ααββ of under 100 nM.
As to `CCN1CCC(Nc2cc(Nc3cccc(Cl)c3)nc3c(/C=C4\NC(=O)NC4=O)cnn23)CC1` [Example W5], the IC50 at CK2 ααββ was under 1000 nM; on recombinant human PIM2 (setting [1]), over 2500 nM.
Taken in the same sequence, the figures for `CC(C)(C)OC(=O)N1CCCC1CNc1cc(Nc2cccc(Cl)c2)nc2c(/C=C3\NC(=O)NC3=O)cnn12` (stereo not drawn) [Example N6] were under 100 nM and over 2500 nM.
Consider `Cc1c(N2CCN(c3ncccc3C#N)CC2)nc2c(C=C3NC(=O)NC3=O)cnn2c1NC1CC1` [Example R46], for which, at CK2 ααββ, the IC50 is under 1000 nM. Further, the “PIM2: % inh […]” value at recombinant human PIM2 is given as 68.545%.
Turning to `O=C1NC(=O)/C(=C/c2cnn3c(NCC4CC4)cc(Nc4ccc(F)c(Cl)c4)nc23)N1` [Example D2], the IC50 at CK2 ααββ was under 100 nM.
Still for that read-out and setting: the same measure for `CNC(=O)c1cccc(Nc2cc(NCC3CC3)n3ncc(/C=C4\NC(=O)NC4=O)c3n2)c1` [Example G2]: under 10 nM.
`CCOC(=O)c1cc(F)cc(Nc2cc(NCC3CC3)n3ncc(/C=C4\NC(=O)NC4=O)c3n2)c1` [Example U1]: the IC50 at CK2 ααββ was under 100 nM; at recombinant human PIM2 (setting [1]) it was over 2500 nM.
In the case of `CCOCC1(CNc2cc(Nc3cccc(Cl)c3)nc3c(/C=C4\NC(=O)NC4=O)cnn23)CC1` [Example X6], the IC50 against CK2 ααββ is under 1000 nM.
For the molecule `CN(C)CC(C)(C)CNc1cc(Nc2cccc(Cl)c2)nc2c(/C=C3\NC(=O)NC3=O)cnn12` [Example M6], the IC50 at CK2 ααββ is under 1000 nM; at recombinant human PIM2 (setting [1]), over 2500 nM.
Taken in the same sequence, the figures for `CN(C)C(=O)N[C@H]1CC[C@H](Nc2cc(NC3CC3)n3ncc(/C=C4\NC(=O)NC4=O)c3n2)CC1` [Example B3] were under 100 nM and 538 nM.
As for `CCN(CC)CCNc1cc(NC2CC2)n2ncc(/C=C3\SC(=O)NC3=O)c2n1` [Example O3], the results for the IC50 against CK2 ααββ and at recombinant human PIM2 (setting [1]) were under 100 nM and over 2500 nM, respectively.
Taken in the same sequence, the figures for `O=C1NC(=O)/C(=C/c2cnn3c(NC4CC4)cc(Nc4cc(F)cc(F)c4)nc23)N1` [Example N1] were under 10 nM and 1970 nM.
As to `O=C1NC(=O)C(=Cc2cnn3c(NC4CC4)nc(OCc4ccccn4)nc23)N1` [Compound M36], the IC50 on CK2 ααββ is under 10 nM; on recombinant human PIM2 (read-out: PIM2: IC50) it was over 1000 nM.
In the case of `COC(=O)N1CCC(Nc2cc(Nc3cccc(Cl)c3)nc3c(/C=C4\NC(=O)NC4=O)cnn23)CC1` [Example T5], the IC50 was under 100 nM on CK2 ααββ and over 2500 nM on recombinant human PIM2 (setting [1]).
Taken in the same sequence, the figures for `O=C1NC(=O)/C(=C/c2cnn3c(NC4CCN(Cc5ccccn5)CC4)cc(Nc4cccc(Cl)c4)nc23)N1` [Example V5] were under 1000 nM and over 2500 nM.
For `Cc1c(N2CCN(c3ncccc3C#N)CC2)nc2c(C=C3SC(=O)NC3=O)cnn2c1NC1CC1` [Example T46], the IC50 at CK2 ααββ was under 1000 nM. The “PIM2: % inh […]” value on recombinant human PIM2 came out at 50.998%.
In the same order, the values of `Cc1c(N2CCN(c3ccccn3)CC2)nc2c(C=C3SC(=O)NC3=O)cnn2c1NC1CC1` [Example S46] are under 1000 nM and −19.761%.
As to `O=C1NC(=O)/C(=C/c2cnn3c(NCC4CC4)cc(Nc4cccc(O)c4)nc23)N1` [Example B2], the IC50 against CK2 ααββ is under 100 nM.
As to `CC(C)Oc1cccc(Nc2cc(NC3CC3)n3ncc(/C=C4\NC(=O)NC4=O)c3n2)c1` [Example M1], the IC50 against CK2 ααββ is under 10 nM; at recombinant human PIM2 (setting [1]), over 2500 nM.
Consider `COc1cccc(Nc2cc(NC3CC3)n3ncc(/C=C4\NC(=O)NC4=O)c3n2)c1Cl` [Example P1], for which the IC50 on CK2 ααββ is under 10 nM; at recombinant human PIM2 (setting [1]) it was over 2500 nM.
With `COc1cccc(-c2cc(NC3CC3)n3ncc(/C=C4\SC(=O)NC4=O)c3n2)c1` [Example H5], the half-maximal inhibitory concentration (IC50) against CK2 ααββ is under 100 nM; on recombinant human PIM2 (setting [1]) it was 815 nM.
Regarding `O=C1NC(=O)/C(=C/c2cnn3c(NCc4ccncc4)cc(Nc4cccc(Cl)c4)nc23)N1` [Example E6], the IC50 is under 1000 nM on CK2 ααββ and 1330 nM on recombinant human PIM2 (setting [1]).
Taken in the same sequence, the figures for `CN1CCCN(c2cc(NC3CC3)n3ncc(/C=C4\SC(=O)NC4=O)c3n2)CC1` [Example Q3] were under 100 nM and 2050 nM.
In the same order, the values of `N[C@H]1CC[C@H](Nc2cc(NC3CC3)n3ncc(/C=C4\NC(=O)NC4=O)c3n2)CC1` [Example R2] are under 100 nM and 878 nM.
Taken in the same sequence, the figures for `O=C1NC(=O)/C(=C/c2cnn3c(NCC4CC4)cc(Nc4cc(F)cc(F)c4)nc23)N1` [Example J2] were under 100 nM and over 2500 nM.
On to `CC(C)(C)OC(=O)N1CCC(CNc2cc(Nc3cccc(Cl)c3)nc3c(/C=C4\NC(=O)NC4=O)cnn23)CC1` [Example T6], for which, at CK2 ααββ, the IC50 is under 100 nM.
`O=C1NC(=O)/C(=C/c2cnn3c(NCC4(CN5CCOCC5)CC4)cc(Nc4cccc(Cl)c4)nc23)N1` [Example Z6] returned an IC50 at CK2 ααββ of under 100 nM.
`O=C1NC(=O)/C(=C/c2cnn3c(NCC4CC4)cc(Nc4ccncc4)nc23)N1` [Example E2]: the IC50 at CK2 ααββ is under 10 nM.
Take `CNS(=O)(=O)c1cccc(-c2cc(NC3CC3)n3ncc(/C=C4\NC(=O)NC4=O)c3n2)c1` [Example Y3]: the IC50 was under 10 nM against CK2 ααββ and over 2500 nM at recombinant human PIM2 (setting [1]).
In the same order, the values of `O=C1NC(=O)/C(=C/c2cnn3c([S+]([O-])Cc4ccccc4)cc(-c4cccc(Cl)c4)nc23)N1` (stereo not drawn) [Example A6] are under 100 nM and 209 nM.
Regarding `C[C@@H](Nc1cc(NC2CC2)n2ncc(/C=C3\NC(=O)NC3=O)c2n1)C1CC1` [Example X2], the results for the IC50 against CK2 ααββ and at recombinant human PIM2 (setting [1]) were under 10 nM and 1950 nM, respectively.
On to `CC(CNc1cc(Nc2cc(Cl)ccc2F)nc2c(C=C3NC(=O)NC3=O)cnn12)N1CCOCC1` (racemic) [Example 515], for which, at CK2 ααββ, the IC50 was under 10 nM.
With `O=C1NC(=O)/C(=C/c2cnn3c(NC4CC4)cc(Nc4ccccn4)nc23)N1` [Example O1], the values for the IC50 against CK2 ααββ and on recombinant human PIM2 (setting [1]) were under 10 nM and over 2500 nM, respectively.
For the molecule `O=C1NC(=O)/C(=C/c2cnn3c(NCC4CC4)cc(Nc4cccc(S(=O)(=O)N5CCCC5)c4)nc23)N1` [Example F2], the IC50 against CK2 ααββ is under 100 nM.
In the case of `O=C1NC(=O)/C(=C/c2cnn3c(NC4CC4)cc(N4CCN(c5ccccn5)CC4)nc23)S1` [Example R3], the half-inhibitory concentration (IC50) was under 1000 nM on CK2 ααββ and 1820 nM on recombinant human PIM2 (setting [1]).
For `CC(C)(CO)CNc1cc(Nc2cccc(Cl)c2)nc2c(/C=C3\NC(=O)NC3=O)cnn12` [Example V6], at CK2 ααββ, the IC50 was under 100 nM.
On to `CC(C)(C)CC(=O)N1CCC(Nc2cc(Nc3cccc(Cl)c3)nc3c(/C=C4\NC(=O)NC4=O)cnn23)CC1` [Example S5], for which the results for the concentration for half-maximal inhibition (IC50) against CK2 ααββ and on recombinant human PIM2 (setting [1]) were under 100 nM and over 2500 nM, respectively.
With `O=C1NC(=O)/C(=C/c2cnn3c(NCC4(CN5CCCC5)CC4)cc(Nc4cccc(Cl)c4)nc23)N1` [Example A7], the IC50 at CK2 ααββ is under 100 nM.
On CK2 ααββ, `O=C1NC(=O)/C(=C/c2cnn3c(NCC4CC4)cc(Nc4ccc(Cl)cc4)nc23)N1` [Example I2] showed an IC50 of under 100 nM.
As for `CN1CCN(CC2(CNc3cc(Nc4cccc(Cl)c4)nc4c(/C=C5\NC(=O)NC5=O)cnn34)CC2)CC1` [Example Y6], the IC50 against CK2 ααββ was under 100 nM.
Regarding `O=C1NC(=O)/C(=C/c2cnn3c(NCC4CC4)cc(Nc4cccc(CN5CCOCC5)c4)nc23)N1` [Example C2], on CK2 ααββ, the concentration for half-maximal inhibition (IC50) was under 100 nM.
